Test results from article PMC11215307, “Targeting dermatophyte Cdc42 and Rac GTPase signaling to hinder hyphal elongation and virulence” (iScience, 2024).
“Also recorded” adds a separate entry of the source.

Experiments:
TrCdc42 = assay: Guanine nucleotide exchange assay of TrCdc42-His promoted by TrCdc24 DH-PH (bodipy-FL GTP fluorescence); format: biochemical, Trichophyton rubrum; conditions: for IC50: guanine nucleotide exchange of TrCdc42 by TrCdc24, fluorescence at 60 min; for Selectivity between fungal Cdc42 and Rac: comparison of TrCdc42 and TrRac IC50 (Table 1)
Protocol: (§1) One μM of TrRac or TrCdc42-His was mixed with 0.1 μM bodipy-FL GTP (Thermo Fisher, Waltham, MA, USA) in Buffer A and allowed to equilibrate for 3 min at 20°C–25°C. Ammonium sulfate, EDTA, or recombinant TrCdc24 DH-PH proteins were incubated with the compounds or vehicles alone (final DMSO concentration: 1%) at the indicated concentrations in the reaction buffer for 20 min at room temperature. The reaction was initiated by combining TrRac or TrCdc42/bodipy-FL GTP (100 μL) with Cdc24DH-PH (50 μL) at room temperature. The change in bodipy-FL-GTP fluorescence (excitation: 485 nm, emission: 535 nm) was monitored for 60 min using a Berthold tristar2 LB942.
(§2) Statistical analyses were conducted using Microsoft Excel and Prism 10, GraphPad. All experiments were performed more than three times. Statistical significance was determined using Student’s t test, one-way analysis of variance, and Tukey–Kramer test. IC50 values were ascertained by plotting the fluorescent intensity (% of control) at 60 min using a specific formula: IC50=x2−(x2/x1)^(50−y2/y2−y1)

[1] = test system: T. rubrum conidial germination; assay: T. rubrum conidia germination assay; format: cell-based, Trichophyton rubrum; conditions: for IC50: overnight incubation at 28°C in Sabouraud medium, calcofluor white staining; for Effect on conidial germination in T. rubrum: in cellulo screen of small GTPase inhibitors
Protocol: Fungal conidia (2 × 10^6) were subjected to an overnight incubation at 28°C in Sabouraud medium, supplemented with 1% DMSO (control) or the Rac and/or Cdc42 inhibitors; 10, 32, and 100 μM EHop-016; 100, 320, and 1000 μM AZA1; 10, 32, and 100 μM EHT1864; 10, 100, and 1000 μM CASIN; 200, 500, and 1000 μM NSC23766; 20, 200, and 2000 μM ketorolac; 100 μM MBQ-167; 1 and 10 μM ML-141; 1000 μM ZCL278; and 50 μM ITX3. Following the incubation, the fungal conidia were washed twice with saline and then stained with 0.2 mM calcofluor white. The germinated and ungerminated conidia were subsequently observed and counted under a fluorescent microscope (Olympus BX53).

[2] = test system: T. rubrum mycelial growth; assay: Mycelial growth inhibition on modified 1/10 Sabouraud glucose agar; format: cell-based, Trichophyton rubrum; conditions: in cellulo screen of small GTPase inhibitors
Protocol: Trichophyton rubrum CBS118892, Escherichia coli BL21, and Agrobacterium tumefaciens EHA105 were used.[74]^,[78]^,[79] E. coli BL21 was cultured in LB medium with appropriate antibiotics at 37°C. A. tumefaciens was cultured in LB or Agrobacterium induction medium supplemented with 0.2 mM acetosyringone at 28°C.[73] T. rubrum was cultured at 28°C. Conidia of T. rubrum were prepared using a previously described method.[80] Sabouraud agar or RPMI with MOPS agar was used for hyphal formation. To evaluate mycelial growth inhibition by inhibitors, a modified 1/10 Sabouraud glucose agar (containing 0.2% bacto peptone, 0.1% glucose, 0.1% KH2PO4, 0.1% MgSO4 7H2O, 1.5% bacto agar, pH unadjusted) was used.

TrRac = assay: Guanine nucleotide exchange assay of TrRac promoted by TrCdc24 DH-PH (bodipy-FL GTP fluorescence); format: biochemical, Trichophyton rubrum; conditions: fluorescence at 60 min
Protocol: as §1, §2

[3] = test system: T. rubrum growth on human nail fragments; assay: In vitro nail infection assay; format: cell-based, Trichophyton rubrum; conditions: 2.6% (60 mM) EHop-016, four applications every 24 h, observed after 36 days at 28°C, versus vehicle
Protocol: The conidial suspension (1 × 10^4/10 μL/nail fragment) of T. rubrum was administered to autoclaved nail fragments obtained from an adult volunteer (ethics approval, No. R3-6, Musashino University, Japan) and incubated at 28°C. After 24 h, either the vehicle (30% DMSO/5% Tween 80) or 60 mM EHop-016 was applied to the nail fragment. A total of four applications were administered every 24 h. The nails were examined after 36 days of incubation.

T. rubrum = assay: Invertebrate (silkworm) infection model of dermatophytosis; format: in vivo, Bombyx mori; conditions: conidia (5 × 10^6) injected into silkworm hemolymph
Protocol: Eggs from silkworms were procured from Ehime-Sansh Co., Ltd. (Japan) and reared following a method described previously.[86]^,[87] Fifth instar silkworm larvae were nourished with an artificial diet (Silkmate 2S; Ehime-Sanshu Co., Ltd., Japan) overnight.[88]^,[89] Dermatophyte infection was conducted in accordance with a previously outlined procedure.[53] Conidia (5 × 10^6) of T. rubrum were injected into the silkworm hemolymph.

Row | Compound | IC50 (TrCdc42) | IC50 ([1]; Trichophyton rubrum) | Effect on conidial germination in T. rubrum [1] | Effect on mycelial growth in T. rubrum [2] | IC50 (TrRac) | IC50 [1] | Selectivity between fungal Cdc42 and Rac (TrCdc42) | T. rubrum growth on human nails [3] | Survival of silkworms infected with T. rubrum (T. rubrum) | Inhibitory activity in conidial germination inhibition assay ([1]; at 100 μM)
1 | Cc1cc2cc(Nc3ccnc(Nc4ccc5[nH]c(C)cc5c4)n3)ccc2[nH]1 [AZA1] | 147 µM | 127 µM | hindered | hindered | 127 µM |  |  |  |  | 
2 | C[C@H]1CCC/C=C/[C@@H]2C[C@H](O)C[C@H]2[C@H](O)/C=C/C(=O)O1 [Brefeldin A] |  |  | did not | did not |  |  |  |  |  | 
3 | OCCNC1CCCc2c1[nH]c1ccc(-c3ccccc3)cc21 (centres unmarked) [CASIN] | 192 µM |  |  |  | 518 µM | 20 µM |  |  |  | 
4 | O=c1cc(CN2CCOCC2)occ1OCCCCCSc1ccnc2cc(C(F)(F)F)ccc12 [EHT1864] | 154 µM | 16 µM | hindered | hindered | > 1000 µM |  | higher selectivity for Cdc42 than for Rac |  |  | 
5 | CCn1c2ccccc2c2cc(Nc3ccnc(NCCCN4CCOCC4)n3)ccc21 [EHop-016] | 40 µM | 45 µM |  |  | 137 µM |  | higher selectivity for Cdc42 than for Rac | no fungal lawn was observed; also recorded: lesser T. rubrum growth on the nails | significantly extended the survival | 
6 | Cc1cc(/C=c2/sc3nc4ccccc4n3c2=O)c(C)n1-c1ccccc1 [ITX3] | > 50 µM |  |  |  | > 50 µM | > 50 µM |  |  |  | 
7 | O=C(c1ccccc1)c1ccc2n1CCC2C(=O)O (centres unmarked) [Ketorolac] | 889 µM | 363 µM |  |  | 1420 µM |  |  |  |  | 
8 | CCn1c2ccccc2c2cc(-n3nncc3-c3ccccc3)ccc21 [MBQ-167] | > 100 µM | > 100 µM |  |  | > 100 µM |  |  |  |  | did not show any inhibitory activity
9 | COc1ccc(C2CC(c3ccccc3)=NN2c2ccc(S(N)(=O)=O)cc2)cc1 (centres unmarked) [ML-141] | > 1000 µM |  |  |  | > 1000 µM | 1.7 µM |  |  |  | 
10 | CCN(CC)CCCC(C)Nc1nc(C)cc(Nc2ccc3nc(C)cc(N)c3c2)n1 (centres unmarked) [NSC23766] | 368 µM | 640 µM | hindered | hindered | 477 µM |  |  |  |  | 
11 | Cc1cc(C)nc(NS(=O)(=O)c2ccc(NC(=S)NC(=O)COc3ccc(Br)cc3Cl)cc2)n1 [ZCL278] | > 1000 µM |  |  |  | > 1000 µM | > 1000 µM |  |  |  | 
12 | NAV2729 |  |  | did not | did not |  |  |  |  |  | 
13 | Rhosin |  |  | did not | did not |  |  |  |  |  | 
